These results are taken from publication PMC11251166 (Nature Communications, 2024).

For one assay, the target named is T1, LnaB (Legionella pneumophila, UniProt Q5ZSJ0).
T1 construct: gene lpg2527
Description: biochemical.

A further assay deals with T2, MavL40-404 (Legionella pneumophila, UniProt Q5ZSJ1).
T2 construct: gene lpg2526
T2 sequence (Q5ZSJ1 40-404 limits assumed): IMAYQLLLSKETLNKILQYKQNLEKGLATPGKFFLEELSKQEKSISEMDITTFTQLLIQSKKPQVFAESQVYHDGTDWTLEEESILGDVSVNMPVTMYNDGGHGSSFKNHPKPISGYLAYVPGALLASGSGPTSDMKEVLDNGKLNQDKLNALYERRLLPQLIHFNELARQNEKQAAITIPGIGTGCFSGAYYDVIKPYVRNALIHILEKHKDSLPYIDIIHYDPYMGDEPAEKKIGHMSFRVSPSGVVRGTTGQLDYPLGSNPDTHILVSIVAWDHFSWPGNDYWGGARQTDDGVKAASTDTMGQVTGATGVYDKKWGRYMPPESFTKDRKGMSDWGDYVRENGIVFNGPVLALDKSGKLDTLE

T1 sequence (Q5ZSJ0 1-558 limits assumed): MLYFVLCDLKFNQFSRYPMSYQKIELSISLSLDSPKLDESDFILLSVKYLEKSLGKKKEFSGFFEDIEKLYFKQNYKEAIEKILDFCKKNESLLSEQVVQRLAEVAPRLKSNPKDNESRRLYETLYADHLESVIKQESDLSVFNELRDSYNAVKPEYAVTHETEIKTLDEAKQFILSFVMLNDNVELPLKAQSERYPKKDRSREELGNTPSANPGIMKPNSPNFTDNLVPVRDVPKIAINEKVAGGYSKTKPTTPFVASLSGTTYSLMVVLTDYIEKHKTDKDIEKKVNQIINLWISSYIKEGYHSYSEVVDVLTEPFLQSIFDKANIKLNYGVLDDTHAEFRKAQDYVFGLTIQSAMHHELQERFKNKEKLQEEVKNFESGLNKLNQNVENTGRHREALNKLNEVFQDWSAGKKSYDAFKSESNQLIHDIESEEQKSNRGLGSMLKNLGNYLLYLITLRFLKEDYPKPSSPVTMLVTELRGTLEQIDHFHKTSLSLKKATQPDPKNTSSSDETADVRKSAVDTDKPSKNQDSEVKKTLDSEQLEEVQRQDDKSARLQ

As to `Nc1ncnc2c1ncn2[C@@H]1O[C@H](COP(=O)(O)OP(=O)(O)OP(=O)(O)O)[C@@H](O)[C@H]1O` [ATP], the Kd at LnaB stood at 15.4 ± 4.85 µM.
On MavL40-404, `Nc1ncnc2c1ncn2[C@@H]1O[C@H](COP(=O)(O)OP(=O)(O)OC[C@H]2OC(O)[C@H](O)[C@@H]2O)[C@@H](O)[C@H]1O` (some centres unmarked) [ADPR] gave a Kd of 25 ± 3.24 µM.

In general, Kd refers to the concentration at which binding is half-saturated. Higher therefore signals lower affinity.
